Data reported in US10189842B2 (Agency for Science, Technology and Research, priority 2013, dated 2019).

What was measured:
MMTV-Wnt1 tumor = test: MMTV-Wnt1 mouse model; type: in vivo; conditions: treated mice, FIG. 2 and FIG. 3
Procedure: 8-10 weeks old Female BALBc mice were anesthetised with 150 mg/kg Ketamine+75 mg/kg Xylazine. Under aseptic conditions, skin near the 4th mammary fat pad was incised. Mammary fat pad was tweaked with forceps and tumor fragment ˜2 mm^3 was implanted. The incision was closed using a tissue adhesive. Animals were randomised into groups of eight and treated daily with the test compounds for 14 days. Tumors were measured in two dimensions using calipers, and volume was calculated using the formula: Tumor Volume (mm^3)=[…]. Maximum tumor volume limit was 2000 mm^3.

HEK293-STF3A cells = test: STF3A assay (luciferase reporter); type: cell-based, Human; conditions: Homo sapiens, 24 h, 1 day of treatment
Procedure, shortened: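 HEK293 cells carrying the STF reporter and expressing Wnt3A, seeded 2×10^4 per well overnight, then treated 1 day with compound at final 50 μM to 1.5 nM. Luciferase activity read by luminescence after Steady-Glo reagent, 10 min at room temperature.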

mammalian PORCN = test: PORCN-null HT1080 cells transfected with mammalian PORCN, WNT3A, STF reporter; type: cell-based; conditions: luciferase, FIG. 1
Procedure: PORCN-null HT1080 cells were transfected with mammalian or Xenopus PORCN expression plasmids, along with WNT3A, STF reporter and mCherry as transfection control. 6 hours after transfection, cells were treated with the compounds or DMSO as indicated, and the following day assayed for luciferase. Xenopus PORCN was resistant to the inhibitory effects of compounds.

| Structure (SMILES) | tumor growth (MMTV-Wnt1 tumor) | IC50 (HEK293-STF3A cells) [µM] | inhibition of the activity of mammalian porcupine (mammalian PORCN) |
| --- | --- | --- | --- |
| Cc1cncc(-c2ccc(NC(=O)CCC(=O)N3CCCn4nc(C)cc43)cn2)c1 [Compound 110, N-(5′-methyl-2,3′-bipyridin-5-yl)-4-(2-methyl-6,7-dihydropyrazolo[1,5-a]pyrimidin-4(5H)-yl)-4-oxobutanamide] | decreased tumor growth in all the treated mice | < 0.1 | inhibit the activity of mammalian porcupine |
| Cc1cccc(-c2ccc(NC(=O)CCC(=O)N3CCCn4nc(C)cc43)cc2)c1 [Compound 59, 4-(2-methyl-6,7-dihydropyrazolo[1,5-a]pyrimidin-4(5H)-yl)-N-(3′-methyl-[1,1′-biphenyl]-4-yl)-4-oxobutanamide] |  | < 0.1 |  |
| Cc1cc2n(n1)CCCN2C(=O)CCC(=O)Nc1ccc(-c2cccc(F)c2)cc1 [Compound 65, N-(3′-fluoro-[1,1′-biphenyl]-4-yl)-4-(2-methyl-6,7-dihydropyrazolo[1,5-a]pyrimidin-4(5H)-yl)-4-oxobutanamide] |  | < 0.1 |  |
| Cc1cc2n(n1)CC(C)CN2C(=O)CCC(=O)Nc1ccc(-c2ccccc2)nn1 (stereo not drawn) [Compound 139, 4-(2,6-dimethyl-6,7-dihydropyrazolo[1,5-a]pyrimidin-4(5H)-yl)-4-oxo-N-(6-phenylpyridazin-3-yl)butanamide] |  | < 0.1 |  |
| Cc1cc2n(n1)CCCN2C(=O)CCC(=O)Nc1ccc(-c2cncc(Cl)c2)nn1 [Compound 102, N-(6-(5-chloropyridin-3-yl)pyridazin-3-yl)-4-(2-methyl-6,7-dihydropyrazolo[1,5-a]pyrimidin-4(5H)-yl)-4-oxobutanamide] |  | < 0.1 |  |
| Cc1cc2n(n1)CCCN2C(=O)CC(C)C(=O)Nc1ccc(-c2cccnc2)cn1 (stereo not drawn) [Compound 147, N-([3,3′-bipyridin]-6-yl)-2-methyl-4-(2-methyl-6,7-dihydropyrazolo[1,5-a]pyrimidin-4(5H)-yl)-4-oxobutanamide] |  | < 0.1 |  |
| Cc1cc2n(n1)CCCN2C(=O)CCC(=O)Nc1cc(-c2ccc(Cl)cn2)no1 [Compound 17, N-(3-(5-chloropyridin-2-yl)isoxazol-5-yl)-4-(2-methyl-6,7-dihydropyrazolo[1,5-a]pyrimidin-4(5H)-yl)-4-oxobutanamide] |  | > 10 |  |
| Cc1cc2n(n1)CCCN2C(=O)CCC(=O)Nc1ccc(-c2ccc(F)cn2)cn1 [Compound 94, N-(5-fluoro-2,3′-bipyridin-6′-yl)-4-(2-methyl-6,7-dihydropyrazolo[1,5-a]pyrimidin-4(5H)-yl)-4-oxobutanamide] |  | < 0.1 |  |
| Cc1cc2n(n1)CCCN2C(=O)CCC(=O)NC1CCN(c2ccccc2)CC1 [Compound 81, 4-(2-methyl-6,7-dihydropyrazolo[1,5-a]pyrimidin-4(5H)-yl)-4-oxo-N-(1-phenylpiperidin-4-yl)butanamide] |  | > 10 |  |
| Cc1cc2n(n1)CCCN2C(=O)CCC(=O)Nc1ccc(-c2cccc(N3CCOCC3)c2)cc1 [Compound 73, 4-(2-methyl-6,7-dihydropyrazolo[1,5-a]pyrimidin-4(5H)-yl)-N-(3′-morpholinobiphenyl-4-yl)-4-oxobutanamide] |  | < 5 |  |
| COc1ccc(-c2ccc(NC(=O)CCC(=O)N3CCCn4nc(C)cc43)cc2)cc1 [Compound 63, N-(4′-methoxy-[1,1′-biphenyl]-4-yl)-4-(2-methyl-6,7-dihydropyrazolo[1,5-a]pyrimidin-4(5H)-yl)-4-oxobutanamide] |  | < 0.1 |  |
| Cc1cc2n(n1)CCCN2C(=O)CCC(=O)Nc1ccc(-c2ccccc2N)cc1 [Compound 69, N-(2′-amino-[1,1′-biphenyl]-4-yl)-4-(2-methyl-6,7-dihydropyrazolo[1,5-a]pyrimidin-4(5H)-yl)-4-oxobutanamide] |  | < 1 |  |
| Cc1cnc(-c2ccc(NC(=O)CCC(=O)N3CCCn4nc(C)cc43)nc2)cn1 [Compound 149, 4-(2-methyl-6,7-dihydropyrazolo[1,5-a]pyrimidin-4(5H)-yl)-N-(5-(5-methylpyrazin-2-yl)pyridin-2-yl)-4-oxobutanamide] |  | < 0.1 |  |
| Cc1cc2n(n1)CCCN2C(=O)CCC(=O)Nc1cc(-c2ccncc2)no1 [Compound 20, 4-{2-methyl-5H,6H,7H-pyrazolo[1,5-a]pyrimidin-4-yl}-4-oxo-N-[3-(pyridin-4-yl)-1,2-oxazol-5-yl]butanamide] |  | > 10 |  |
| Cc1cc2n(n1)CCN2C(=O)CCC(=O)Nc1cc(-c2cccc(Cl)c2)no1 [Compound 138, N-(3-(3-chlorophenyl)isoxazol-5-yl)-4-(6-methyl-2,3-dihydro-1H-imidazo[1,2-b]pyrazol-1-yl)-4-oxobutanamide] |  | > 10 |  |
| Cc1cc2n(n1)CCCN2C(=O)CCC(=O)Nc1ccc(-c2cccc(C(=O)N(C)C)c2)cc1 [Compound 68, N,N-dimethyl-4′-(4-(2-methyl-6,7-dihydropyrazolo[1,5-a]pyrimidin-4(5H)-yl)-4-oxobutanamido)-[1,1′-biphenyl]-3-carboxamide] |  | > 10 |  |

| Structure (SMILES) | tumor growth (MMTV-Wnt1 tumor) | IC50 (HEK293-STF3A cells) [µM] | inhibition of the activity of mammalian porcupine (mammalian PORCN) |
| --- | --- | --- | --- |
| Cc1cc2n(n1)CCCN2C(=O)CCC(=O)Nc1ccc(-n2ccnc2)cc1 [Compound 27, N-(4-(1H-imidazol-1-yl)phenyl)-4-(2-methyl-6,7-dihydropyrazolo[1,5-a]pyrimidin-4(5H)-yl)-4-oxobutanamide] |  | < 1 |  |
| Cc1cc2n(n1)CCCN2C(=O)CCC(=O)Nc1ccc(-c2cccc(F)c2)nn1 [Compound 98, N-(6-(3-fluorophenyl)pyridazin-3-yl)-4-(2-methyl-6,7-dihydropyrazolo[1,5-a]pyrimidin-4(5H)-yl)-4-oxobutanamide] |  | < 0.1 |  |
| Cc1cc2n(n1)CC(C)CN2C(=O)CCC(=O)Nc1ccc(-c2cccnc2)nc1 (stereo not drawn) [Compound 140, N-(2,3′-bipyridin-5-yl)-4-(2,6-dimethyl-6,7-dihydropyrazolo[1,5-a]pyrimidin-4(5H)-yl)-4-oxobutanamide] |  | < 0.1 |  |
| CCNC(=O)N1CCN(c2ccc(NC(=O)CCC(=O)N3CCCn4nc(C)cc43)nc2)CC1 [Compound 79, N-ethyl-4-(6-(4-(2-methyl-6,7-dihydropyrazolo[1,5-a]pyrimidin-4(5H)-yl)-4-oxobutanamido)pyridin-3-yl)piperazine-1-carboxamide] |  | < 5 |  |
| Cc1cc2n(n1)CCCN2C(=O)CCC(=O)Nc1ccc(-c2nccs2)cc1 [Compound 25] |  | < 0.1 |  |
| Cc1cncc(-c2ccc(NC(=O)C(C)CC(=O)N3CCCn4nc(C)cc43)cn2)c1 (stereo not drawn) [Compound 150, 2-methyl-4-(2-methyl-6,7-dihydropyrazolo[1,5-a]pyrimidin-4(5H)-yl)-N-(5′-methyl-[2,3′-bipyridin]-5-yl)-4-oxobutanamide] |  | < 0.1 |  |
| Cc1cc2n(n1)CCCN2C(=O)CCC(=O)Nc1ccc(-c2ccccc2C)cc1 [Compound 58, 4-(2-methyl-6,7-dihydropyrazolo[1,5-a]pyrimidin-4(5H)-yl)-N-(2′-methyl-[1,1′-biphenyl]-4-yl)-4-oxobutanamide] |  | < 0.1 |  |
| Cc1cc2n(n1)CCCN2C(=O)CCC(=O)Nc1cnc(-c2cccc(F)c2)cn1 [Compound 123, N-(5-(3-fluorophenyl)pyrazin-2-yl)-4-(2-methyl-6,7-dihydropyrazolo[1,5-a]pyrimidin-4(5H)-yl)-4-oxobutanamide] |  | < 0.1 |  |
| Cc1cc2n(n1)CCCN2C(=O)CCC(=O)Nc1ccc(-c2ccccc2F)cc1 [Compound 64, N-(2′-fluoro-[1,1′-biphenyl]-4-yl)-4-(2-methyl-6,7-dihydropyrazolo[1,5-a]pyrimidin-4(5H)-yl)-4-oxobutanamide] |  | < 0.1 |  |
| Cc1cc2n(n1)CCCN2C(=O)CCC(=O)Nc1cc(C)c(-c2cccnc2)nn1 [Compound 106, 4-(2-methyl-6,7-dihydropyrazolo[1,5-a]pyrimidin-4(5H)-yl)-N-(5-methyl-6-(pyridin-3-yl)pyridazin-3-yl)-4-oxobutanamide] |  | < 5 |  |
| Cc1cncc(-c2ccc(NC(=O)CCC(=O)N3CC(C)Cn4nc(C)cc43)nc2)c1 (stereo not drawn) [Compound 142, 4-(2,6-dimethyl-6,7-dihydropyrazolo[1,5-a]pyrimidin-4(5H)-yl)-N-(5′-methyl-[3,3′-bipyridin]-6-yl)-4-oxobutanamide] |  | < 0.1 |  |
| Cc1cccc(-c2cc(NC(=O)CCC(=O)N3CCCn4nc(C)cc43)on2)c1 [Compound 11, 4-{2-methyl-5H,6H,7H-pyrazolo[1,5-a]pyrimidin-4-yl}-N-[3-(3-methylphenyl)-1,2-oxazol-5-yl]-4-oxobutanamide] |  | > 10 |  |
| CC(=O)N1CCN(c2ccc(NC(=O)CCC(=O)N3CCCn4nc(C)cc43)cc2)CC1 [Compound 78, N-(4-(4-acetylpiperazin-1-yl)phenyl)-4-(2-methyl-6,7-dihydropyrazolo[1,5-a]pyrimidin-4(5H)-yl)-4-oxobutanamide] |  | > 10 |  |
| Cc1cc2n(n1)CCCN2C(=O)CCC(=O)Nc1cnc(-c2ccccc2)c(C)c1 [Compound 86, 4-(2-methyl-6,7-dihydropyrazolo[1,5-a]pyrimidin-4(5H)-yl)-N-(5-methyl-6-phenylpyridin-3-yl)-4-oxobutanamide] |  | < 5 |  |
| Cc1cc2n(n1)CCCN2C(=O)CCC(=O)Nc1cc(-c2cccnc2)no1 [Compound 19, 4-(2-methyl-6,7-dihydropyrazolo[1,5-a]pyrimidin-4(5H)-yl)-4-oxo-N-(3-(pyridin-3-yl)isoxazol-5-yl)butanamide] |  | > 10 |  |
